The conditions of series [1]: rat, in vivo; cited from earlier work.
In series [2] the test system is human tumor cells. The series can be described thus: Internalisation (uptake) experiments in tumor cells. Type of series: cell-based. On the procedure:
Uptake experiments were undertaken to evaluate the affinity of the proposed L-phenylalanine derivatives for the proposed human tumors, and to assess their therapeutic activity in vitro. All experiments were performed fourfold, simultaneously with 250000, 500000 and 10^6 freshly prepared human tumor cells, including human malignant glioma cells, pancreatic prostatic and breast cancer cells. Before experiments, subconfluent cells were trypsinized as described above. The suspension was mixed thoroughly, transferred to a 50-ml centrifuge tube (Falcon®, Becton Dickinson, USA). Cells were centrifuged for 5 min at 200×g; the resulting supernatant was removed and the pellet resuspended in serum-free Dulbecco's Mod Eagle medium and then transferred to Eppendorf tubes at concentrations of 10^6 cells/ml for the uptake investigations. Before incubation with the corresponding radiolabeled phenylalanine, the tumor cells were preincubated for 5 min in 500 μL medium at 37° C. in 1.5-ml Eppendorf centrifuge tubes. Aliquots of 30-50 μL (10^6−1.5×10^6 cpm) freshly prepared radiopharmaceutical were added and cells incubated at 37° C./5% CO2 for 1, 2, 5, 15, 30, 60, 90 and 120 min while shaking. Uptake was stopped with 500 μL ice-cold PBS (pH 7.4) and an additional 3-min in an ice bath, the cells were centrifuged for 2 min at 300×g, the supernatant removed and the pellet washed three time with ice-cold PBS. Cell pellets were counted for radioactivity together with 3 aliquots of standards on a Berthold LB951 counter. The percentage of binding of the radiopharmaceutical was calculated by the formula: (cpm cell pellet/mean cpm radioactive standards)×100. The results were expressed either as percent of the applied dose per 10^6 cells or as cpm/1000 cells for better comparison.

Series [3] deals with malignant cell lines. The series can be described thus: Cell survival rate after treatment with 3/4-iodo-L-phenylalanine (cytotoxic/cytostatic effect). Type of series: cell-based, human. On the procedure: Five human glioma cell lines, one rat glioma cell line, two human prostate cancer cell lines, as well as one human breast cancer cell line, and a melanoma cell line were investigated. The human glioma cell lines Tx 3868 and T 5135 (from primary human glioblastoma multiforme), and the rat C6 glioma cells were provided by the Institute of Human Genetics, University of the Saarland (Homburg, Germany). The human high-grade glioma cells, designated as A1207, M059K and U373MG, the human prostate cancer cells PC3 and […], the pancreatic carcinoma cell line PanC1, the human breast cancer cell line MCF-07 (American Type Culture Collection, Rockville, Md.), and the pancreatic carcinoma cell line PaCa44 (established by Dr Bulow, Mainz, Germany) as well as the melanoma cell lines SK-MEL25 and A101D were purchased commercially or provided by the oncological research laboratory of the University Medical Center of Saarland (Homburg, Germany). […]
Human tumor cells grown on standard glass slides were fixed in 4% neutral buffered formalin and stained with the Giemsa method. The cell number was calculated in 10 consecutive high power fields (×40).

In series [4] the test system is human Tx3868 glioblastoma cells. The series can be described thus: Radiosensitizing effect: IPA combined with external irradiation in glioblastoma cells. Type of series: cell-based. The settings on record: for radiosensitizer effect: concomitantly administered therapeutic radiation. As to the method:
Five human glioma cell lines, one rat glioma cell line, two human prostate cancer cell lines, as well as one human breast cancer cell line, and a melanoma cell line were investigated. The human glioma cell lines Tx 3868 and T 5135 (from primary human glioblastoma multiforme), and the rat C6 glioma cells were provided by the Institute of Human Genetics, University of the Saarland (Homburg, Germany). The human high-grade glioma cells, designated as A1207, M059K and U373MG, the human prostate cancer cells PC3 and […], the pancreatic carcinoma cell line PanC1, the human breast cancer cell line MCF-07 (American Type Culture Collection, Rockville, Md.), and the pancreatic carcinoma cell line PaCa44 (established by Dr Bulow, Mainz, Germany) as well as the melanoma cell lines SK-MEL25 and A101D were purchased commercially or provided by the oncological research laboratory of the University Medical Center of Saarland (Homburg, Germany). Cells were cultivated in RPMI-1640 medium or in Dulbecco's modified Eagle medium (sodium pyruvate-free, supplemented with […] and pyridoxine), respectively, supplemented with 10% (v/v) heat-inactivated foetal calf serum (FCS), penicillin (50 U/ml), streptomycin (50 μg/ml), and insulin (50 μg/ml; PromoCell, Heidelberg, Germany). All cell lines were maintained in appropriate flasks in a humidified incubator (5% CO2) at 37° C. Before the experiment, subconfluent cell cultures were trypsinized with a solution of 0.05% trypsin containing 0.02% EDTA but without Ca^2+ and Mg^2+, and resuspended in fresh medium to various cell concentrations after counting by vital staining on a hemocytometer, depending upon the study. Cells were free of mycoplasms. Viability of the cells was >95%.
Evaluation of the cell survival rate after treatment with 3/4-iodo-L-phenylalanine. After development of a confluent lawn of cells, the cultures were exposed to 0.1-5 μmol/ml of the corresponding pharmaceutical for up to 48 hours at 37° C./5% CO2. In a parallel experiment, cells were irradiated using a 6-MeV linear accelerator with doses from 2 to 15 Gy or treated with IPA-131 for comparison of cell survival rate. In order to be able to observe the morphology of the glioma cells, the cells were grown on standard glass slides or in standard culture dishes. Then the medium was removed and the cells were fixed either in 70% ethanol for at least 30 min on ice for flow-cytometric analyses after staining or in 4% neutral buffered formalin for immunohistopathological analyse.

The conditions of series [5]: rats, cited from earlier work.
For series [6], the system named is human A1207 and T3868 glioblastoma xenografts. The series can be described thus: Intracranial human glioma model in RNU rats (survival). The conditions noted are these: daily in first week then weekly, n=9. Type of series: in vivo. As to the method: An in vivo experiment was carried out in an intracranial human glioma model in RNU rats to assess the therapeutic effectiveness of 4-Iodo-L-phenylalanine (IPA) in glioma.
Primary human A1207 and T3868 glioblastoma cells (0.5×10^6 cells) were stereotaxically implanted into the right frontal region of RNU rats (2 mm posterior and 2 mm lateral to the intersection of the sagittal and bregma sutures to a depth of 5 mm) while under chloralhydrate anesthesia. The craniectomy was resealed with bone wax and the scalp closed.
IPA (1 and 5 mg/kg b.w.) was administrated i.p. in rats bearing human glioblastoma xenografts (n=9 in each group), starting at day 1 after stereotaxic implantation.
IPA was administrated daily in the first week after implantation and weekly afterwards. Another six RNU rats were treated with saline and served as control.
Then the following parameters were compared: median survival time, tumor size and histology after biopsy.

A short description of series [7]: Acute toxicity (LD50/LD10) in rats. The settings on record: i.p. injection.
In series [8] the test system is malignant gliomas. The settings on record: cited from earlier work.

Read-outs that look alike come from different tables or passages of the source. Where only a bound is given, the exact number is not on record here.

Consider 6 molecules from patent US8268888B2, “Therapy of malignant neoplasias” (priority 2005, dated 2012).

`N[C@@H](Cc1ccc(Cl)cc1)C(=O)O` (racemic) [p-chloro-phenylalanine]: the “effect on growth of developing rats” value in series [1] is reported as “interferes with the growth of developing rats”.

In the case of `N[C@@H](Cc1ccccc1I)C(=O)O` [2-iodo-L-phenylalanine, reference compound], the “uptake in neoplastic cells” value in series [2] (compared with IPA and IMA) is reported as “low uptake”. Moreover, the “cytotoxicity in neoplastic cells” value in series [3] (compared with IPA and IMA) is reported as “moderate cytotoxity”.

On to `N[C@@H](Cc1cccc(I)c1)C(=O)O` [3-iodo-L-phenylalanine], for which the radiosensitizer effect result in series [4] is listed as “significant intrinsic radiosensitizer effect”.

Consider `N[C@@H](Cc1ccc(I)cc1)C(=O)O` [IPA, 4-iodo-L-phenylalanine], for which the “uptake in human tumor cells” value in series [2] (quantified with 4-[123I]iodo-L-phenylalanine, up to 120 min, FIGS. 1-3) is “high uptake”. In series [2] (tumor cells), the “concentration up to which transport capacity did not show saturation” value was over 200 µmol/L. Further, in series [5] (route not stated), the LD50 (usually the dose at which mortality reaches 50%) is given as over 100 mg/kg. Moreover, the “rats still alive at day 28” value in series [6] (IPA 1 mg/kg i.p.) is on record as “six out of nine”; in series [6] (IPA 5 mg/kg i.p.) it was “seven out of nine”. The LD10 in series [7] is over 27 mg/kg. The induction of necrosis/apoptosis entry in series [4] (0.3 μmol/ml IPA with 10 Gy external radiation, FIG. 7b) was “increased induction of necrosis and additional induction of apoptosis”. For the same molecule, in series [4], the radiosensitizer effect result is listed as “significant intrinsic radiosensitizer effect”. For the same molecule, the “cell survival rate on combining with external irradiation” value in series [4] (glioma cells, FIGS. 4-6) is “dramatic reduction of cell survival rate”. For the same molecule, the “cytostatic effect on primary human glioblastoma cells” value in series [3] (FIG. 4, compared with external irradiation) is “concentration dependent and more pronounced as compared to external irradiation up to 15 Gy”.

In the case of `N[C@@H](Cc1ccc([123I])cc1)C(=O)O` [IPA-123, 4-[^123I]iodo-L-phenylalanine], the blood-brain barrier passage entry in series [8] (after intravenous administration) is given as “crosses”. In addition, the “enrichment in certain tumors (factor)” value in series [8] (certain tumors) is reported as at least 20.

For `N[C@@H](Cc1ccccc1)C(=O)O` [L-phenylalanine, reference compound], in series [5] (i.p. injection, according to the manufacturer), the 50% lethal dose (LD50) was 5280 mg/kg.
